Test results: patent publication US7476729B2, “Dbait and uses thereof” (Institut Curie, priority 2003, dated 2009)

Columns and labels:
GMA32 cells = assay: FACS analysis of sub-G1 cells (cell death) in GMA32 cells; format: cell-based, Chinese hamster; settings: GMA32, 4.5 μg Dbait with lipofectamine, no irradiation or mitotic inhibitor
Method: The GMA32 Chinese hamster fibroblast cells permissive of DNA breaks were maintained in MEM medium (Gibco) supplemented with 1 mM sodium pyruvate, 2 mM glutamine, 1×MEM non essential amino acids, 1× penicillin/streptomycin and 10% horse serum. Typically, 2×10^5 to 4×10^5 cells were seeded in medium without antibiotics, in 5 cm diameter Petri dishes 24 hours before the transfection of different Dbait molecules (4.5 μg) with lipofectamine 2000 (LifeTechnologies) as transfection agent (in a 1:3 ratio), according to the manufacturer's instructions. At the end of the transfection the cells were either irradiated (4 Gy) or treated with mitotic inhibitors: nocodazole (200 nM), navelbine (100 nM) or taxol (200 nM).
About 16 hour later the drug was removed and the cells were allowed to recover. Cell irradiation was performed with γ-rays from a ^137Cs source. After a 24 hours recovery, the cells were collected and used either for FACS, western blot analyses or to determine the clonogenicity (survival) and the effect of each treatment.
The M1 phase represents the percentage of cells in sub-G1 stage indicative of cell death.
The experiments were performed with a FACS calibur flow cytometer (Becton Dickinson). Cells were collected, suspended in 1 ml of cold GM buffer (6.5 mM glucose, 137 mM NaCl, 5.4 mM KCl, 2 mM Na2HPO4, 1 mM KHPO4, 0.5 mM EDTA), and stored at 4° C. for at least 2 hours after addition of 3 ml of cold 100% ethanol.
At that stage, cells were eventually washed with 1×PBS, then stained for 30 minutes at room temperature in PI solution (50 μg/ml propidium iodide, 25 μg/ml RNase A in 1×PBS buffer). 10,000 events were analyzed with Cellquest software, and cell aggregates were gated out. The percentage of cells with a sub-G1 content of DNA was scored.

Ku complex = biological target: T1, Ku complex (Homo sapiens, UniProt P12956+P13010); assay: Band-shift assay with Hep2 nuclear protein extracts; format: binding; settings: for binding of Ku: Hep2 nuclear extract, band-shift; for retarded bands in band-shift assay: 10 nM 32P radio-labelled Dbait, 0-320 ng/μL Hep2 nuclear proteins, 30° C., 10 minutes
T1 construct: in the presence of nuclear protein extracts from Hep2 cells according to standard protocol; endogenous in cells; host or cells: Hep2 cells (nuclear protein extract)
T1 sequence (P12956 whole entry): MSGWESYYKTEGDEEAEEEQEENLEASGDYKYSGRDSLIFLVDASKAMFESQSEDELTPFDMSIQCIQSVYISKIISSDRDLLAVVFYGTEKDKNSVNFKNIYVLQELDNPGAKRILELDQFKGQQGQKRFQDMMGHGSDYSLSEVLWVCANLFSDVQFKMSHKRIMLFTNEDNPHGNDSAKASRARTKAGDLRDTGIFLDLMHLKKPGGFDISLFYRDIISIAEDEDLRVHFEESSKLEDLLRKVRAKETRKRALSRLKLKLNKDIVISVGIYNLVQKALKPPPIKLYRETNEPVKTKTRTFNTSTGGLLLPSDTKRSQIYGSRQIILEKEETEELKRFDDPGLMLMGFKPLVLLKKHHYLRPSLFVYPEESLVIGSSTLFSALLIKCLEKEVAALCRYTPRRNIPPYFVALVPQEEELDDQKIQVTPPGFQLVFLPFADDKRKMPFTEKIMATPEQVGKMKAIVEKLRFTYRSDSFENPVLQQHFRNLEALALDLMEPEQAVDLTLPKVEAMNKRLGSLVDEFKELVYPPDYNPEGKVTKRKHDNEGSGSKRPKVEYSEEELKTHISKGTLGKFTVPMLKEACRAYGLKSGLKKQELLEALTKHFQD
T1 sequence (P13010 whole entry): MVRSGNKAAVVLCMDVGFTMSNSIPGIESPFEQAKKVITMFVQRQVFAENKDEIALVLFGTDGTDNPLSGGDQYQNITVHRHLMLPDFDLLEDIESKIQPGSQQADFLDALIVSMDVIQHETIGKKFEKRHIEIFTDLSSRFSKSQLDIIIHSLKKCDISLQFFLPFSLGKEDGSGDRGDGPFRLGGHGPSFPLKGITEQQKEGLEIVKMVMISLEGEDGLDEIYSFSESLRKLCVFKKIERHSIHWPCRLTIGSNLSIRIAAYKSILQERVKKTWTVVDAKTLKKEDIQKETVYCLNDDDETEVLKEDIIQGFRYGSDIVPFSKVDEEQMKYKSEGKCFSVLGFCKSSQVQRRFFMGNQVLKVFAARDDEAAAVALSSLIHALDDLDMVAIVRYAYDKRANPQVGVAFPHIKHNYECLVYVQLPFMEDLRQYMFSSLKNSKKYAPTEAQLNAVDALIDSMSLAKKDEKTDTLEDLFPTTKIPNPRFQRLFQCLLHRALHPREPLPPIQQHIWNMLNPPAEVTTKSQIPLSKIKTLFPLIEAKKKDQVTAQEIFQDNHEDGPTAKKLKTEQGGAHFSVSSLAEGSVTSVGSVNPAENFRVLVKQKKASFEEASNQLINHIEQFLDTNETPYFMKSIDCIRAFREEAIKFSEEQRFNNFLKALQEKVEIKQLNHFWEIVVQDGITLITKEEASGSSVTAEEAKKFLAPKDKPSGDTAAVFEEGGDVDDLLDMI
Method: As the first step to dissect the mechanism of action of Dbait molecules, a series of band-shift assays were carried out with different ^32P radio-labelled Dbait molecules in the presence of nuclear protein extracts from Hep2 cells according to standard protocol. Typically, 10 nM ^32P radio-labelled Dbait molecules were incubated in the presence of various concentrations of nuclear proteins (0, 10, 20, 40, 80, 160, and 320 ng/μL) at 30° C. for 10 minutes in TBE buffer. Then the samples were loaded on a 5% acrylamide native gel. The electrophoresis was run at 95V for 2 hours at 4° C. The gel was dried and scanned by phosphorimager (Molecular Dynamics).
For 32-bp Dbait molecules, the intensity of the retarded band 1 increases and then decreases as the concentration of protein increases, while the intensity of the retarded band 2 increases as a function of the concentration of nuclear protein extracts.
It is likely that band 1 has one Ku70/80 complex bound to the 16 to 32-bp Dbait, whereas the band 2 has two Ku70/80 complexes bound to the 32-bp Dbait molecules. Control experiments performed with purified Ku proteins confirmed this interpretation.

[1] = tested on: radiation-enhanced illegitimate integration of a plasmid in Hela cells; assay: Inhibition of radiation-enhanced illegitimate integration of exogenous DNA; format: cell-based, human; settings: for radiation-enhanced illegitimate integration of plasmid (puromycin resistance): 2 μg Dbait, fractionated 4×0.5 Gy irradiation
Method: Exponentially growing cells in six-well plates were harvested and incubated with […] of complete DMEM containing a mixture of Dbait molecules and Superfect reagent (Qiagen, Courtaboeuf, France) in a ratio of 10 μl Superfect per μg DNA. After 5 h at 37° C. under standard conditions, the cells were washed with PBS and complete DMEM was added. Where indicated, cells were exposed to irradiation either in one session (10 Gy) 5 h after the beginning of transfection or in four sessions of 0.5 Gy administered with a ^137Cs unit (1 Gy/min) 3, 4, 5 and 6 h after the beginning of transfection and allowed to grow for two weeks. When plasmid integration was measured, 2 μg of plasmid was added to Dbait transfection and puromycin (1.7 μg/ml) was added to the growth medium 48 h after transfection. Plasmid transfection efficiency was estimated by analyzing 10,000 cells for GFP expression on a FACScan flow cytometer (FACSalibur, Beckton-Dickinson, USA).
Ionizing radiation is known to improve illegitimate integration of exogenous DNA, a process termed radiation-enhanced integration. Hela cell culture was used for this assay. Cells were transfected during 8 hours by 2 μg of a linear plasmid carrying the gene coding for neomycin resistance, and three different ratio of DNA/superfect (1:2, 1:5, 1:10). During transfection time, the cells were exposed to different irradiation protocols: no irradiation, one single irradiation of 1 Gy and 2 Gy, as well as a 2 Gy irradiation delivered by fractionated doses of 0.5 Gy every 2 hours (4×0.5 Gy). The integration of the plasmid was monitored by selection of Neo^R cells growing in a medium containing 0.6 mg/ml of G418. […] When 2 μg of Dbait32H (SEQ ID NO: 1) molecules were added to the transfection mix, the radiation-enhanced integration was abolished (FIG. 2.3).
Wortmann (Wort) and NU7026 (NU) which are known inhibitors of PI3K (including DNA-PK) were used as control.

[2] = tested on: p53 serine 15 phosphorylation in GMA32 cells; assay: Western blot of p53 serine 15 phosphorylation in GMA32 cells; format: cell-based, Chinese hamster; settings: GMA32, Dbait with lipofectamine, no irradiation or mitotic inhibitor
Method: Further experiment was carried out in order to look for evidence of DNA damage signaling. The protein p53 is a well known major protein in mediating DNA damage signaling and in coordinating appropriate responses (DNA repair, apoptosis, etc.) by changing its phosphorylation status. In particular, the phosphorylation of serine 15 residue is involved in the interaction with MDM2 protein which acts as a feed back control Thus, the phosphorylation status of the serine 15 of p53 was assessed by Western blot.
For Western blot analysis, cells were lysed in Laemmli buffer. Equal amounts of lysates were resolved in 12% polyacrylamide gels. Proteins were transferred to nitrocellulose membranes, which were blocked with 5% nonfat milk (1 hour) before overnight incubation with anti-p53Ser15 antibody (9284, Cell Signaling) diluted 500 folds in TBST buffer (10 mM Tris-HCl pH7.5, 150 mM NaCl, 0.1% Tween 20) containing 5% nonfat milk. Blots were then incubated with horseradish peroxidase-conjugated goat anti-rabbit IgG secondary antibodies (P0448, Dako) diluted 1/5000 in TBST. Protein-antibody complexes were detected by enhanced chemiluminescence (RPN2106 ECL, Amersham).

Substance: Dbait8H: hairpin double strand DNA with a stem of 8-bp (DNA ACGCACGG; DNA, backbone not given here; hairpin, hexaethyleneglycol loop, 3-bp phosphorothioate at free blunt end)
- cell death (cells in sub-G1 stage) (GMA32 cells): failed to trigger cell death
- binding of Ku (Ku complex): dID NO:t bind Ku
- radiation-enhanced illegitimate integration of plasmid (puromycin resistance) [1]: not effective
- phosphorylation of p53 serine 15 [2]: Neither the shortest Dbait8H (SEQ ID NO: 4) nor single strand Dbaut32ss (SEQ ID NO: 1) molecules were able to induced significant phosphorylation

Substance: Dbait16H: hairpin double strand DNA with a stem of 16-bp (DNA ACGCACGGGTGTTGGG; DNA, backbone not given here; hairpin DNA with hexaethyleneglycol loop, 3-bp phosphorothioate at free blunt end)
- cell death (cells in sub-G1 stage) (GMA32 cells): intermediate
- retarded bands in band-shift assay (Ku complex): One retarded band
- binding of Ku (Ku complex): bound only one Ku dimer
- radiation-enhanced illegitimate integration of plasmid (puromycin resistance) [1]: not effective
- phosphorylation of p53 serine 15 [2]: moderate phosphorylation

Substance: Dbait32H: hairpin double strand DNA with a stem of 32-bp, hexaethyleneglycol linker, phosphorothioate at the free blunt end (DNA ACGCACGGGTGTTGGGTCGTTTGTTCGGATCT; DNA, backbone not given here; hairpin, hexaethyleneglycol loop, 3-bp phosphorothioate at free blunt end)
- cell death (cells in sub-G1 stage) (GMA32 cells): Significant cell death
- retarded bands in band-shift assay (Ku complex): two retarded band
- radiation-enhanced illegitimate integration of plasmid (puromycin resistance) [1]: capable of inhibiting
- radiation-enhanced integration of linear plasmid (neomycin resistance) ([1]; Hela, 2 μg Dbait added to transfection mix, 4×0.5 Gy): abolished
- phosphorylation of p53 serine 15 [2]: highly phosphorylated

Substance: Dbait32ss: 32-nt single strand DNA (SEQ ID NO: 1) (DNA ACGCACGGGTGTTGGGTCGTTTGTTCGGATCT; DNA, backbone not given here)
- cell death (cells in sub-G1 stage) (GMA32 cells): moderate
- radiation-enhanced illegitimate integration of plasmid (puromycin resistance) [1]: not effective
- phosphorylation of p53 serine 15 [2]: Neither the shortest Dbait8H (SEQ ID NO: 4) nor single strand Dbaut32ss (SEQ ID NO: 1) molecules were able to induced significant phosphorylation
